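96-well plates; 48 h exposure; 5 concentrations. Endpoints by linear interpolation between flanking doses. Not reached: highest tested concentration assigned. TGI is the concentration that stops growth completely.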
How the values were obtained:
Experiment in all cases: NCI-60 cell line screen, 48 h
HL-60(TB) leukemia = system: HL-60(TB) leukemia
U251 CNS = system: U251 CNS
MDA-MB-231 breast = system: MDA-MB-231 breast
SNB-75 CNS = system: SNB-75 CNS
SK-OV-3 ovarian = system: SK-OV-3 ovarian
T-47D breast = system: T-47D breast
HT29 colon = system: HT29 colon
SF-295 CNS = system: SF-295 CNS
SW-620 colon = system: SW-620 colon
RXF 393 renal = system: RXF 393 renal
SF-268 CNS = system: SF-268 CNS
SK-MEL-5 melanoma = system: SK-MEL-5 melanoma
ACHN renal = system: ACHN renal
IGROV1 ovarian = system: IGROV1 ovarian
HOP-92 NSCLC = system: HOP-92 NSCLC
HS 578T breast = system: HS 578T breast
SK-MEL-2 melanoma = system: SK-MEL-2 melanoma
EKVX NSCLC = system: EKVX NSCLC
NCI-H23 lung = system: NCI-H23 lung
LOX IMVI melanoma = system: LOX IMVI melanoma
CAKI-1 renal = system: CAKI-1 renal
HCT-116 colon = system: HCT-116 colon
A549 NSCLC = system: A549 NSCLC
MDA-MB-435 = system: MDA-MB-435
M14 melanoma = system: M14 melanoma
786-0 renal = system: 786-0 renal
PC-3 prostate = system: PC-3 prostate
UACC-62 melanoma = system: UACC-62 melanoma
K-562 leukemia = system: K-562 leukemia
UO-31 renal = system: UO-31 renal
SK-MEL-28 melanoma = system: SK-MEL-28 melanoma
DU-145 prostate = system: DU-145 prostate
SF-539 CNS = system: SF-539 CNS
HCC-2998 colon = system: HCC-2998 colon
NCI-H460 lung = system: NCI-H460 lung
HOP-62 NSCLC = system: HOP-62 NSCLC
UACC-257 melanoma = system: UACC-257 melanoma
OVCAR-5 ovarian = system: OVCAR-5 ovarian
COLO 205 colon = system: COLO 205 colon
OVCAR-3 ovarian = system: OVCAR-3 ovarian
HCT-15 colon = system: HCT-15 colon
SN12C renal = system: SN12C renal
MALME-3M melanoma = system: MALME-3M melanoma
MDA-N = system: MDA-N
NCI-H522 lung = system: NCI-H522 lung
SNB-19 CNS = system: SNB-19 CNS
TK-10 renal = system: TK-10 renal
NCI/ADR-RES ovarian = system: NCI/ADR-RES ovarian
NCI-H226 lung = system: NCI-H226 lung
SR leukemia = system: SR leukemia
OVCAR-8 ovarian = system: OVCAR-8 ovarian
OVCAR-4 ovarian = system: OVCAR-4 ovarian
A498 renal = system: A498 renal
MOLT-4 leukemia = system: MOLT-4 leukemia
KM12 colon = system: KM12 colon
MCF7 breast = system: MCF7 breast
CCRF-CEM leukemia = system: CCRF-CEM leukemia
RPMI-8226 leukemia = system: RPMI-8226 leukemia

COc1cc(C(=O)NC(CCN)(c2ccccc2)c2ccccc2)cc(OC)c1OC
TGI (HL-60(TB) leukemia): 18.5 µM
TGI (U251 CNS): > 100 µM
TGI (MDA-MB-231 breast): > 31.5 µM
TGI (SNB-75 CNS): 30.4 µM
TGI (SK-OV-3 ovarian): > 31.6 µM
TGI (T-47D breast): > 31.6 µM
TGI (HT29 colon): 28.3 µM
TGI (SF-295 CNS): > 31.6 µM
TGI (SW-620 colon): > 31.6 µM
TGI (RXF 393 renal): 27.6 µM
TGI (SF-268 CNS): > 31.6 µM
TGI (SK-MEL-5 melanoma): 18 µM
TGI (ACHN renal): > 31.6 µM
TGI (IGROV1 ovarian): > 31.6 µM
TGI (HOP-92 NSCLC): 25.5 µM
TGI (HS 578T breast): > 92.6 µM
TGI (SK-MEL-2 melanoma): > 100 µM
TGI (EKVX NSCLC): > 31.6 µM
TGI (NCI-H23 lung): > 31.6 µM
TGI (LOX IMVI melanoma): > 31.6 µM
TGI (CAKI-1 renal): 87.6 µM
TGI (HCT-116 colon): > 95.3 µM
TGI (A549 NSCLC): > 31.6 µM
TGI (MDA-MB-435): > 31.6 µM
TGI (M14 melanoma): 19.1 µM
TGI (786-0 renal): > 31.6 µM
TGI (PC-3 prostate): > 100 µM
TGI (UACC-62 melanoma): > 31.6 µM
TGI (K-562 leukemia): 23.1 µM
TGI (UO-31 renal): > 64.4 µM
TGI (SK-MEL-28 melanoma): 21.4 µM
TGI (DU-145 prostate): > 31.6 µM
TGI (SF-539 CNS): > 100 µM
TGI (HCC-2998 colon): 19.8 µM
TGI (NCI-H460 lung): > 31.6 µM
TGI (HOP-62 NSCLC): > 31.6 µM
TGI (UACC-257 melanoma): 22.3 µM
TGI (OVCAR-5 ovarian): > 100 µM
TGI (COLO 205 colon): 19 µM
TGI (OVCAR-3 ovarian): > 100 µM
TGI (HCT-15 colon): > 31.6 µM
TGI (SN12C renal): > 31.6 µM
TGI (MALME-3M melanoma): 18.4 µM
TGI (MDA-N): > 100 µM
TGI (NCI-H522 lung): > 100 µM
TGI (SNB-19 CNS): > 100 µM
TGI (TK-10 renal): > 31.6 µM
TGI (NCI/ADR-RES ovarian): > 100 µM
TGI (NCI-H226 lung): 98.9 µM
TGI (SR leukemia): 24 µM
TGI (OVCAR-8 ovarian): > 31.6 µM
TGI (OVCAR-4 ovarian): > 31.6 µM
TGI (A498 renal): 17.5 µM
TGI (MOLT-4 leukemia): 21.5 µM
TGI (KM12 colon): > 31.6 µM
TGI (MCF7 breast): > 31.6 µM

C=C1OC(=O)[C@]2([C@@H](/C=C/C)C=CC(=O)[C@H]2O)[C@@H]1O
TGI (HL-60(TB) leukemia): > 100 µM
TGI (U251 CNS): > 100 µM
TGI (MDA-MB-231 breast): > 100 µM
TGI (SNB-75 CNS): > 100 µM
TGI (SK-OV-3 ovarian): > 100 µM
TGI (T-47D breast): > 100 µM
TGI (HT29 colon): > 100 µM
TGI (SF-295 CNS): > 100 µM
TGI (SW-620 colon): > 100 µM
TGI (CCRF-CEM leukemia): > 100 µM
TGI (RXF 393 renal): > 100 µM
TGI (SF-268 CNS): > 100 µM
TGI (SK-MEL-5 melanoma): > 100 µM
TGI (ACHN renal): > 100 µM
TGI (IGROV1 ovarian): > 100 µM
TGI (HS 578T breast): > 100 µM
TGI (SK-MEL-2 melanoma): > 100 µM
TGI (EKVX NSCLC): > 100 µM
TGI (NCI-H23 lung): > 100 µM
TGI (LOX IMVI melanoma): > 100 µM
TGI (CAKI-1 renal): > 100 µM
TGI (HCT-116 colon): > 100 µM
TGI (A549 NSCLC): > 100 µM
TGI (MDA-MB-435): > 100 µM
TGI (M14 melanoma): > 100 µM
TGI (786-0 renal): > 100 µM
TGI (PC-3 prostate): > 100 µM
TGI (UACC-62 melanoma): > 100 µM
TGI (K-562 leukemia): > 100 µM
TGI (UO-31 renal): > 100 µM
TGI (SK-MEL-28 melanoma): > 100 µM
TGI (DU-145 prostate): > 100 µM
TGI (SF-539 CNS): > 100 µM
TGI (RPMI-8226 leukemia): > 100 µM
TGI (HCC-2998 colon): > 100 µM
TGI (NCI-H460 lung): > 100 µM
TGI (HOP-62 NSCLC): > 100 µM
TGI (UACC-257 melanoma): > 100 µM
TGI (OVCAR-5 ovarian): > 100 µM
TGI (COLO 205 colon): > 100 µM
TGI (OVCAR-3 ovarian): > 100 µM
TGI (HCT-15 colon): > 100 µM
TGI (SN12C renal): > 100 µM
TGI (MALME-3M melanoma): > 100 µM
TGI (MDA-N): > 100 µM
TGI (NCI-H522 lung): > 100 µM
TGI (SNB-19 CNS): > 100 µM
TGI (TK-10 renal): > 100 µM
TGI (NCI/ADR-RES ovarian): > 100 µM
TGI (NCI-H226 lung): > 100 µM
TGI (SR leukemia): > 100 µM
TGI (OVCAR-8 ovarian): > 100 µM
TGI (OVCAR-4 ovarian): > 100 µM
TGI (MOLT-4 leukemia): > 100 µM
TGI (KM12 colon): > 100 µM
TGI (MCF7 breast): > 100 µM

Source: PubChem BioAssay (NCI)
